In the supplement of paper PMC10883282:

How the values were obtained:
Test in all cases: standardised AUC of viability dose-response curve (72 h) (fraction (0-1)); higher = less growth inhibition (more resistant)
[1] = tested on: A204
How it was run: (§1)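 After 72 h with 2.5 µl of compound (compound-plate series 10 mM to 0.0002 mM), triplicate wells of sarcoma cell lines in 384-well plates were read with ATPLite, with viability scaled 1 (full) to 0 (none) and fitted with a four-parameter log-logistic model. The values give the standardised area under the dose-response curve in log-dose space from a modified drexplorer computeAUC. A value of 1 means no response and 0 means full response.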

[2] = tested on: G401
How it was run: as §1

[3] = tested on: HS729
How it was run: as §1

[4] = tested on: HT1080
How it was run: as §1

[5] = tested on: KHOS-240S
How it was run: as §1

[6] = tested on: KHOS-NP
How it was run: as §1

[7] = tested on: MES-SA
How it was run: as §1

[8] = tested on: RD-ES
How it was run: as §1

[9] = tested on: RD
How it was run: as §1

[10] = tested on: SK-ES-1
How it was run: as §1

[11] = tested on: SK-LMS-1
How it was run: as §1

[12] = tested on: SW1353
How it was run: as §1

[13] = tested on: SW684
How it was run: as §1

[14] = tested on: SW872
How it was run: as §1

[15] = tested on: SW982
How it was run: as §1

[16] = tested on: SYO-1
How it was run: as §1

[17] = tested on: VA-ES-BJ
How it was run: as §1

## N#CCNC(=O)c1ccc(-c2ccnc(Nc3ccc(N4CCOCC4)cc3)n2)cc1 [MOMELOTINIB]
[1]
  standardised AUC: 0.829
[2]
  standardised AUC: 0.889
[3]
  standardised AUC: 0.922
[4]
  standardised AUC: 1
[5]
  standardised AUC: 0.91
[6]
  standardised AUC: 0.979
[7]
  standardised AUC: 0.863
[8]
  standardised AUC: 0.944
[9]
  standardised AUC: 0.994
[10]
  standardised AUC: 0.815
[11]
  standardised AUC: 0.941
[12]
  standardised AUC: 0.893
[13]
  standardised AUC: 0.907
[14]
  standardised AUC: 0.898
[15]
  standardised AUC: 0.861
[16]
  standardised AUC: 0.839
[17]
  standardised AUC: 0.964

## Cc1ccc(Nc2nccc(N(C)c3ccc4c(C)n(C)nc4c3)n2)cc1S(N)(=O)=O [PAZOPANIB]
[1]
  standardised AUC: 0.699
[2]
  standardised AUC: 0.914
[3]
  standardised AUC: 0.91
[4]
  standardised AUC: 0.999
[5]
  standardised AUC: 0.951
[6]
  standardised AUC: 0.978
[7]
  standardised AUC: 0.964
[8]
  standardised AUC: 0.988
[9]
  standardised AUC: 0.997
[10]
  standardised AUC: 0.966
[11]
  standardised AUC: 0.974
[12]
  standardised AUC: 0.98
[13]
  standardised AUC: 0.99
[14]
  standardised AUC: 0.984
[15]
  standardised AUC: 0.987
[16]
  standardised AUC: 0.78
[17]
  standardised AUC: 1

## CCN1C(=O)N(c2c(F)c(OC)cc(OC)c2F)Cc2cnc3[nH]c(CN4CCOCC4)cc3c21 [PEMIGATINIB]
[1]
  standardised AUC: 0.685
[2]
  standardised AUC: 0.696
[3]
  standardised AUC: 0.748
[4]
  standardised AUC: 0.97
[5]
  standardised AUC: 0.88
[6]
  standardised AUC: 0.991
[7]
  standardised AUC: 0.822
[8]
  standardised AUC: 0.942
[9]
  standardised AUC: 0.938
[10]
  standardised AUC: 0.839
[11]
  standardised AUC: 0.924
[12]
  standardised AUC: 0.861
[13]
  standardised AUC: 0.951
[14]
  standardised AUC: 0.946
[15]
  standardised AUC: 0.889
[16]
  standardised AUC: 0.804
[17]
  standardised AUC: 0.951

## COc1cc(OC)c(/C=C/S(=O)(=O)Cc2ccc(OC)c(NCC(=O)O)c2)c(OC)c1 [RIGOSERTIB]
[1]
  standardised AUC: 0.779
[2]
  standardised AUC: 0.852
[3]
  standardised AUC: 0.882
[4]
  standardised AUC: 0.707
[5]
  standardised AUC: 0.636
[6]
  standardised AUC: 0.805
[7]
  standardised AUC: 0.681
[8]
  standardised AUC: 0.644
[9]
  standardised AUC: 0.712
[10]
  standardised AUC: 0.584
[11]
  standardised AUC: 0.719
[12]
  standardised AUC: 0.822
[13]
  standardised AUC: 0.851
[14]
  standardised AUC: 0.854
[15]
  standardised AUC: 0.748
[16]
  standardised AUC: 0.827
[17]
  standardised AUC: 0.755

## COCCNc1cc(NC(=O)N2CCCc3cc(CN4CCN(C)CC4=O)c(C=O)nc32)ncc1C#N [ROBLITINIB]
[1]
  standardised AUC: 0.963
[2]
  standardised AUC: 0.979
[3]
  standardised AUC: 0.971
[4]
  standardised AUC: 0.996
[5]
  standardised AUC: 0.983
[6]
  standardised AUC: 0.994
[7]
  standardised AUC: 0.975
[8]
  standardised AUC: 0.978
[9]
  standardised AUC: 0.992
[10]
  standardised AUC: 0.976
[11]
  standardised AUC: 0.988
[12]
  standardised AUC: 0.995
[13]
  standardised AUC: 0.994
[14]
  standardised AUC: 1
[15]
  standardised AUC: 0.997
[16]
  standardised AUC: 0.959
[17]
  standardised AUC: 0.994

## Cc1cc2cc(Oc3ccnc(Nc4cccc(CS(=O)(=O)NCCN(C)C)c4)n3)ccc2[nH]1 [SULFATINIB]
[1]
  standardised AUC: 0.805
[2]
  standardised AUC: 0.909
[3]
  standardised AUC: 0.874
[4]
  standardised AUC: 0.99
[5]
  standardised AUC: 0.931
[6]
  standardised AUC: 0.982
[7]
  standardised AUC: 0.95
[8]
  standardised AUC: 0.962
[9]
  standardised AUC: 0.964
[10]
  standardised AUC: 0.955
[11]
  standardised AUC: 0.965
[12]
  standardised AUC: 0.97
[13]
  standardised AUC: 0.966
[14]
  standardised AUC: 0.96
[15]
  standardised AUC: 0.924
[16]
  standardised AUC: 0.759
[17]
  standardised AUC: 0.987

## CCN(CC)CCNC(=O)c1c(C)[nH]c(/C=C2\C(=O)Nc3ccc(F)cc32)c1C [SUNITINIB]
[1]
  standardised AUC: 0.558
[2]
  standardised AUC: 0.907
[3]
  standardised AUC: 0.804
[4]
  standardised AUC: 0.864
[5]
  standardised AUC: 0.815
[6]
  standardised AUC: 0.88
[7]
  standardised AUC: 0.829
[8]
  standardised AUC: 0.755
[9]
  standardised AUC: 0.836
[10]
  standardised AUC: 0.716
[11]
  standardised AUC: 0.908
[12]
  standardised AUC: 0.855
[13]
  standardised AUC: 0.876
[14]
  standardised AUC: 0.813
[15]
  standardised AUC: 0.754
[16]
  standardised AUC: 0.648
[17]
  standardised AUC: 0.881

## Cn1ncnc1[C@H]1c2n[nH]c(=O)c3cc(F)cc(c23)N[C@@H]1c1ccc(F)cc1 [TALAZOPARIB]
[1]
  standardised AUC: 0.79
[2]
  standardised AUC: 0.817
[3]
  standardised AUC: 0.936
[4]
  standardised AUC: 0.83
[5]
  standardised AUC: 0.86
[6]
  standardised AUC: 0.919
[7]
  standardised AUC: 0.675
[8]
  standardised AUC: 0.433
[9]
  standardised AUC: 0.832
[10]
  standardised AUC: 0.376
[11]
  standardised AUC: 0.905
[12]
  standardised AUC: 0.836
[13]
  standardised AUC: 0.956
[14]
  standardised AUC: 0.826
[15]
  standardised AUC: 0.749
[16]
  standardised AUC: 0.48
[17]
  standardised AUC: 0.725

## O=c1sn(-c2cccc3ccccc23)c(=O)n1Cc1ccccc1 [TIDEGLUSIB]
[1]
  standardised AUC: 0.994
[2]
  standardised AUC: 0.951
[3]
  standardised AUC: 0.913
[4]
  standardised AUC: 0.999
[5]
  standardised AUC: 0.983
[6]
  standardised AUC: 0.99
[7]
  standardised AUC: 0.971
[8]
  standardised AUC: 0.985
[9]
  standardised AUC: 0.996
[10]
  standardised AUC: 0.975
[11]
  standardised AUC: 0.99
[12]
  standardised AUC: 0.966
[13]
  standardised AUC: 0.964
[14]
  standardised AUC: 0.976
[15]
  standardised AUC: 0.993
[16]
  standardised AUC: 0.962
[17]
  standardised AUC: 0.972

## O=C1NC(=O)[C@@H](c2cn3c4c(cccc24)CCC3)[C@@H]1c1c[nH]c2ccccc12 [TIVANTINIB]
[1]
  standardised AUC: 0.844
[2]
  standardised AUC: 0.865
[3]
  standardised AUC: 0.896
[4]
  standardised AUC: 0.796
[5]
  standardised AUC: 0.782
[6]
  standardised AUC: 0.867
[7]
  standardised AUC: 0.754
[8]
  standardised AUC: 0.768
[9]
  standardised AUC: 0.789
[10]
  standardised AUC: 0.718
[11]
  standardised AUC: 0.79
[12]
  standardised AUC: 0.879
[13]
  standardised AUC: 0.883
[14]
  standardised AUC: 0.859
[15]
  standardised AUC: 0.792
[16]
  standardised AUC: 0.804
[17]
  standardised AUC: 0.829

## Cc1[nH]c(/C=C2\C(=O)Nc3ccc(F)cc32)c(C)c1C(=O)NCCN1CCCC1 [TOCERANIB]
[1]
  standardised AUC: 0.669
[2]
  standardised AUC: 0.923
[3]
  standardised AUC: 0.739
[4]
  standardised AUC: 0.908
[5]
  standardised AUC: 0.841
[6]
  standardised AUC: 0.931
[7]
  standardised AUC: 0.82
[8]
  standardised AUC: 0.778
[9]
  standardised AUC: 0.957
[10]
  standardised AUC: 0.795
[11]
  standardised AUC: 0.891
[12]
  standardised AUC: 0.926
[13]
  standardised AUC: 0.937
[14]
  standardised AUC: 0.864
[15]
  standardised AUC: 0.833
[16]
  standardised AUC: 0.632
[17]
  standardised AUC: 0.918

## CC(C)Oc1ccc(-c2nn([C@@H](C)c3oc4ccc(F)cc4c(=O)c3-c3cccc(F)c3)c3ncnc(N)c23)cc1F [UMBRALISIB]
[1]
  standardised AUC: 0.969
[2]
  standardised AUC: 0.983
[3]
  standardised AUC: 0.939
[4]
  standardised AUC: 0.984
[5]
  standardised AUC: 0.983
[6]
  standardised AUC: 0.994
[7]
  standardised AUC: 0.989
[8]
  standardised AUC: 0.993
[9]
  standardised AUC: 0.998
[10]
  standardised AUC: 0.985
[11]
  standardised AUC: 0.966
[12]
  standardised AUC: 0.949
[13]
  standardised AUC: 0.937
[14]
  standardised AUC: 0.987
[15]
  standardised AUC: 1
[16]
  standardised AUC: 0.97
[17]
  standardised AUC: 0.982

## CC[C@@H]1CN(C(=O)NCC(F)(F)F)C[C@@H]1c1cnc2cnc3[nH]ccc3n12 [UPADACITINIB]
[1]
  standardised AUC: 0.97
[2]
  standardised AUC: 0.961
[3]
  standardised AUC: 0.915
[4]
  standardised AUC: 0.976
[5]
  standardised AUC: 0.956
[6]
  standardised AUC: 0.975
[7]
  standardised AUC: 0.977
[8]
  standardised AUC: 0.994
[9]
  standardised AUC: 0.993
[10]
  standardised AUC: 0.988
[11]
  standardised AUC: 0.974
[12]
  standardised AUC: 0.945
[13]
  standardised AUC: 0.984
[14]
  standardised AUC: 0.951
[15]
  standardised AUC: 0.979
[16]
  standardised AUC: 0.913
[17]
  standardised AUC: 0.962

## Clc1ccc(Nc2nnc(Cc3ccncc3)c3ccccc23)cc1 [VATALANIB]
[1]
  standardised AUC: 0.864
[2]
  standardised AUC: 0.971
[3]
  standardised AUC: 0.989
[4]
  standardised AUC: 1
[5]
  standardised AUC: 0.978
[6]
  standardised AUC: 1
[7]
  standardised AUC: 0.998
[8]
  standardised AUC: 0.99
[9]
  standardised AUC: 0.995
[10]
  standardised AUC: 0.998
[11]
  standardised AUC: 0.975
[12]
  standardised AUC: 0.979
[13]
  standardised AUC: 0.988
[14]
  standardised AUC: 0.994
[15]
  standardised AUC: 0.997
[16]
  standardised AUC: 0.937
[17]
  standardised AUC: 1
